Experiments:
[1] = tested on: rat bone marrow cells; assay: Myelotoxicity by flow cytometer analysis of cell surface antigen-expressing bone marrow cells after administration of 5-FU; type: in vivo; details: 50 mg/kg/day intravenously; for Number of CD45 Peak 1-expressing cells / Number of CD45 Peak 2-expressing cells / Number of CD45R-expressing cells / Number of CD71-expressing cells / Number of CD90-expressing cells: n = 3
Protocol: (1) Six-week-old male CD (SD) IGS rats purchased from Charles River Japan were used at the age of 8 weeks. During the housing period, the rats were fed with a feed for animals (Oriental Yeast Co., Ltd., CRF-1) and drinking water (well water containing 0.4% of a hypochlorite added) ad libitum. The animals were housed in metal cages (one animal per cage) and kept under conditions of a temperature of 23±1° C. and a humidity of 55±15%.
(2) The bone marrow was collected from left and right femurs. The femurs were taken out under anaethesia with pentobarbital, and both ends of the femurs were cut. The bone marrow was then flushed out with 1 mL of fetal bovine serum using a syringe with a 25G injection needle. Bone pieces or the like were removed by using a Pasteur pipette, and cells were then collected by centrifugation (3,000 rpm for 5 minutes).
(3) To 20 μL of the cells collected in (2), was added 5 mL of a phosphate-buffer-solution (PBS). Thereby, a cell suspension was obtained.
(4) To 200 μL of the cell suspension in (3), was added 2 μg of a specific antibody to the cell surface antigen. Incubation was carried out at room temperature for 45 minutes. Mouse IgG2a anti-rat CD2, mouse IgG1 anti-rat CD8, mouse IgA anti-rat CD11b, mouse IgG1 anti-rat CD45, mouse IgG2b anti-rat CD45R, mouse IgG2a anti-rat CD71 and mouse IgG2a anti-rat CD90 were used as the antibody. Mouse IgG1, mouse IgG2a, mouse IgG2b and mouse IgA were used as the isotype control antibody. All the antibodies labeled with fluorescein (FITC) (Pharmingen.) were used as the antibody.
(5) After incubation, 1 mL of Optilyse C (Beckman Coulter.) was added, and treatment was carried out for 10 minutes to hemolyze erythrocytes. After the hemolytic treatment, 1 mL of PBS was added, and incubation was carried out at room temperature for 10 minutes.
(6) Procedures of adding 1 mL of PBS to a cell precipitation obtained by centrifugation (3,000 rpm for 5 minutes) after incubation and thereby washing the cells were repeated twice.
(7) After washing, 2 mL of PBS was added to the cell precipitation to provide a cell suspension. Analysis was carried out with the use of a flow cytometer (EPICS XL-MCL, Beckman Coulter.) The analysis was conducted by following procedures described below. […] The fluorescence detector sensitivity of the flow cytometer was adjusted with the cells treated with the isotype antibody.
(§1) (2) 5-Fluorouracil (hereinafter abbreviated to 5-FU) as a chemotherapeutic agent in a dose of 50 mg/kg/day ([…], 10 mL/kg) was intravenously administered to the rats, and a physiological saline solution was used as the control substance.
(§2) The days of the experiment were indicated by the day of starting the administration as day 0. Groups for collecting the bone marrow on the day 0 and day 5 of the experiment were respectively set as groups administered with the control substance. Groups for collecting the bone marrow from day 1 to day 5 of the experiment were respectively set as groups administered with the 5-FU. The number of animals in each group was 3.
(4) Bone marrow collection, antibody treatment and analysis with the flow cytometer were carried out according to Example 1. A flow count (Beckman Coulter.) was added to the cell suspension during the flow cytometer analysis, and a calibration region was set on the cytogram of EPIS XL-MCL to make measurement. The absolute number of the respective cell surface antigen-expressing cells was calculated. Mouse IgGI anti-rat CD45, mouse IgG2b anti-rat CD45R, mouse IgG2a anti-rat CD71 and mouse IgG2a anti-rat CD90 were used as the antibody, and mouse IgG1, mouse IgG2a and mouse IgG2b were used as the isotype control antibody.
(6) The expression of cell surface antigens was measured for 15,000 bone marrow cells per individual with the use of the flow cytometer.

[2] = tested on: rat bone marrow cells; assay: Observation of smears of bone marrow (May-Grünwald and Giemsa staining) in rats administered with 5-FU; type: in vivo; parameters: key to Number of Cells, Erythroblasts / Number of Cells, Immature Myelocytes: —: Undetected; details: 50 mg/kg/day intravenously
Protocol: as §1, §2
(5) A part of bone marrow cells were suspended in an adequate amount of fetal bovine serum. An adequate amount of the resulting suspension was then dropped onto a slide glass, and a cover glass was obliquely applied to the droplet of the bovine fetal serum containing the bone marrow cells. The slide glass was directly moved to prepare smears (the wedge method). Each smear was subjected to May-Grünwald and Giemsa staining to carry out microscopic observation, and the ratio of the cells was calculated for each lineage and differentiation stage. After calculating the ratio, the resulting ratio was multiplied by the separately obtained number of bone marrow cells to determine the absolute number by observing the smear of each cell.
(7) Observation of smears was carried out for 500 bone marrow cells per individual (one smear).

Number of Cells, Erythroblasts ([2]; Day 1, Mean ± SD, n = 3): 0.18 ± 0.07 ×10^6/μL | Number of Cells, Immature Myelocytes ([2]; Day 1, Mean ± SD, n = 3): 0.20 ± 0.10 ×10^6/μL | Number of Cells, Lymphocytes ([2]; Day 1, Mean ± SD, n = 3): 2.01 ± 0.86 ×10^6/μL | Number of Cells, Mature Myelocytes ([2]; Day 1, Mean ± SD, n = 3): 0.49 ± 0.22 ×10^6/μL | Number of Cells, Erythroblasts ([2]; Day 2, Mean ± SD, n = 3): 0.02 ± 0.03 ×10^6/μL | Number of Cells, Immature Myelocytes ([2]; Day 2, Mean ± SD, n = 3): 0.09 ± 0.04 ×10^6/μL | Number of Cells, Lymphocytes ([2]; Day 2, Mean ± SD, n = 3): 1.46 ± 0.21 ×10^6/μL | Number of Cells, Mature Myelocytes ([2]; Day 2, Mean ± SD, n = 3): 0.95 ± 0.32 ×10^6/μL | Number of Cells, Erythroblasts ([2]; Day 3, Mean ± SD, n = 3): 0.003 ± 0.001 ×10^6/μL | Number of Cells, Immature Myelocytes ([2]; Day 3, Mean ± SD, n = 3): 0.003 ± 0.001 ×10^6/μL | Number of Cells, Lymphocytes ([2]; Day 3, Mean ± SD, n = 3): 0.62 ± 0.13 ×10^6/μL | Number of Cells, Mature Myelocytes ([2]; Day 3, Mean ± SD, n = 3): 0.39 ± 0.03 ×10^6/μL | Number of Cells, Erythroblasts ([2]; Day 4, Mean ± SD, n = 3): 0.001 ± 0.001 ×10^6/μL | Number of Cells, Lymphocytes ([2]; Day 4, Mean ± SD, n = 3): 0.56 ± 0.20 ×10^6/μL | Number of Cells, Mature Myelocytes ([2]; Day 4, Mean ± SD, n = 3): 0.12 ± 0.02 ×10^6/μL | Number of Cells, Immature Myelocytes ([2]; Day 4, n = 3): — | Number of Cells, Lymphocytes ([2]; Day 5, Mean ± SD, n = 3): 0.51 ± 0.08 ×10^6/μL | Number of Cells, Mature Myelocytes ([2]; Day 5, Mean ± SD, n = 3): 0.03 ± 0.01 ×10^6/μL | Number of Cells, Erythroblasts ([2]; Day 5, n = 3): — | Number of Cells, Immature Myelocytes ([2]; Day 5, n = 3): —
SMILES: O=c1[nH]cc(F)c(=O)[nH]1 [5-FU, 5-Fluorouracil]
Number of CD45 Peak 1-expressing cells ([1]; Day 1, Mean ± SD): 1.65 ± 0.68 ×10^6/μL | Number of CD45 Peak 2-expressing cells ([1]; Day 1, Mean ± SD): 0.76 ± 0.32 ×10^6/μL | Number of CD45R-expressing cells ([1]; Day 1, Mean ± SD): 1.54 ± 0.69 ×10^6/μL | Number of CD71-expressing cells ([1]; Day 1, Mean ± SD): 0.46 ± 0.17 ×10^6/μL | Number of CD90-expressing cells ([1]; Day 1, Mean ± SD): 1.76 ± 0.79 ×10^6/μL | Number of CD45 Peak 1-expressing cells ([1]; Day 2, Mean ± SD): 1.20 ± 0.32 ×10^6/μL | Number of CD45 Peak 2-expressing cells ([1]; Day 2, Mean ± SD): 0.82 ± 0.20 ×10^6/μL | Number of CD45R-expressing cells ([1]; Day 2, Mean ± SD): 1.46 ± 0.27 ×10^6/μL | Number of CD71-expressing cells ([1]; Day 2, Mean ± SD): 0.30 ± 0.15 ×10^6/μL | Number of CD90-expressing cells ([1]; Day 2, Mean ± SD): 1.58 ± 0.18 ×10^6/μL | Number of CD45 Peak 1-expressing cells ([1]; Day 3, Mean ± SD): 0.34 ± 0.13 ×10^6/μL | Number of CD45 Peak 2-expressing cells ([1]; Day 3, Mean ± SD): 0.75 ± 0.25 ×10^6/μL | Number of CD45R-expressing cells ([1]; Day 3, Mean ± SD): 0.59 ± 0.11 ×10^6/μL | Number of CD71-expressing cells ([1]; Day 3, Mean ± SD): 0.09 ± 0.05 ×10^6/μL | Number of CD90-expressing cells ([1]; Day 3, Mean ± SD): 0.49 ± 0.10 ×10^6/μL | Number of CD45 Peak 1-expressing cells ([1]; Day 4, Mean ± SD): 0.05 ± 0.02 ×10^6/μL | Number of CD45 Peak 2-expressing cells ([1]; Day 4, Mean ± SD): 0.64 ± 0.24 ×10^6/μL | Number of CD45R-expressing cells ([1]; Day 4, Mean ± SD): 0.41 ± 0.12 ×10^6/μL | Number of CD71-expressing cells ([1]; Day 4, Mean ± SD): 0.02 ± 0.02 ×10^6/μL | Number of CD90-expressing cells ([1]; Day 4, Mean ± SD): 0.16 ± 0.06 ×10^6/μL | Number of CD45 Peak 1-expressing cells ([1]; Day 5, Mean ± SD): 0.03 ± 0.02 ×10^6/μL | Number of CD45 Peak 2-expressing cells ([1]; Day 5, Mean ± SD): 0.51 ± 0.06 ×10^6/μL | Number of CD45R-expressing cells ([1]; Day 5, Mean ± SD): 0.32 ± 0.08 ×10^6/μL | Number of CD71-expressing cells ([1]; Day 5, Mean ± SD): 0.02 ± 0.01 ×10^6/μL | Number of CD90-expressing cells ([1]; Day 5, Mean ± SD): 0.09 ± 0.02 ×10^6/μL | Change of number of CD45 (Peak 1)-expressing cells, in words ([1]; day 1 to day 5): began decreasing in a period between day 1 and day 2 of the experiment and was decreased to such an extent of the scarcely observed expressing cells on day 4 of the experiment | Change of number of CD45 (Peak 2)-expressing cells, in words ([1]; day 1 to day 5): A decrease was not observed | Change of number of CD45R-expressing cells, in words ([1]; day 1 to day 5): the decrease continued on day 3 of the experiment and thereafter | Change of number of CD71-expressing cells, in words ([1]; day 1 to day 5): decreased to such an extent of the scarcely observed expressing cells on day 3 of the experiment and thereafter | Change of number of CD90-expressing cells, in words ([1]; day 1 to day 5): markedly decreased on day 3 of the experiment and thereafter | Change of erythroblasts, in words ([2]; day 1 to day 5): decreased to such an extent of the scarcely observed cells on day 3 of the experiment and thereafter | Change of immature myelocytes, in words ([2]; day 1 to day 5): decreased to such an extent of the scarcely observed cells on day 3 of the experiment and thereafter | Change of lymphocytes, in words ([2]; day 1 to day 5): decreased on day 3 of the experiment and thereafter | Change of number of mature myelocytes, in words ([2]; day 1 to day 5): temporarily increased from day 1 to day 3 of the experiment and then decreased on day 4 of the experiment and thereafter

From US7300763B2, “Method of testing myelotoxicity with the use of flow cytometer” (Teijin Limited, priority 2000, dated 2007)
